From PubChem BioAssay AID624448 (The Scripps Research Institute Molecular Screening Center, 2012)
Activity calls are given as the source filed them.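 Rule for the calls: active = PP5 phosphatase activity cut by at least half at the top 100 µM dose; inactive = less than half inhibition at 100 µM.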

Target: Serine/threonine-protein phosphatase 5 (Homo sapiens) (UniProt P53041)
Experiment: inhibitors of PP5c catalytic activity – biochemical, OMFP substrate, fluorescence, round 5, 1 µM low dose, late-stage follow-up (AID 624448)
Conditions: purified PP5c, OMFP dephosphorylation

Sequence of Serine/threonine-protein phosphatase 5 (Homo sapiens) (P53041 whole entry, looked up): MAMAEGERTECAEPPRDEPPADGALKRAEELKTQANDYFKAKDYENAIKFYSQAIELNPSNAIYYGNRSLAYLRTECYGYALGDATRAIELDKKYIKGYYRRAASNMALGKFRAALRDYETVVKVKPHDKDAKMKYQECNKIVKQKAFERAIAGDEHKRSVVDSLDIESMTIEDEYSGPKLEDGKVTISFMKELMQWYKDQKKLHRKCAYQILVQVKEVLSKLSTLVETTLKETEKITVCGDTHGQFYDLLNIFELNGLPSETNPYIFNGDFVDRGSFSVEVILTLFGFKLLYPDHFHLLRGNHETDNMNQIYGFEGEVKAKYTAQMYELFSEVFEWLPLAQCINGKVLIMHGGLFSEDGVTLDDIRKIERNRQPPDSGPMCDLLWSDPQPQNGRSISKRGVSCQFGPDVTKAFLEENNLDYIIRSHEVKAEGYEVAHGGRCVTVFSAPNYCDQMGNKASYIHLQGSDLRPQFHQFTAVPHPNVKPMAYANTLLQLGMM

IC50	SMILES
> 100 µM (inactive)	O=C(O)c1cn[nH]n1
> 100 µM (inactive)	Cc1n[nH]nc1C(=O)O
> 100 µM (inactive)	COC(=O)c1n[nH]nc1-c1ccccc1

Second part, the molecule before the results:

SMILES	IC50
O=C(O)c1cn[nH]c1-c1ccccc1	> 100 µM (inactive)
O=C(O)c1nn(Cc2ccccc2)nc1Cl	> 100 µM (inactive)
O=C(O)c1cn(Cc2ccccc2)nn1	> 100 µM (inactive)
O=C(O)c1nnn(-c2ccccc2)c1-c1ccccc1	> 100 µM (inactive)
O=C(O)c1ncn[nH]1	> 100 µM (inactive)
